# Patent publication US20250353821A1, “BENZENE SULFONAMIDE THIAZOLE COMPOUNDS AND THEIR USE FOR THE TREATMENT OF CANCERS” (INSERM (INSTITUT NATIONAL DE LA SANTÉ ET DE LA RECHERCHE …, priority 2021, published 2025)
# Legend:
# A375 melanoma cells [1] = assay: Cell viability by cell counting, trypan blue exclusion method; format: cell-based; settings: Homo sapiens, A-375, 48 h, percentage of cells alive relative to negative control DMSO (100%)
# [2] = tested on: Normal human fibroblasts (FHN); assay: In vitro toxicity test on normal human fibroblasts, 48 h; format: cell-based; settings: concentration 10 times higher than its IC50, FIG. 2
# [3] = tested on: normal human melanocytes (MHN); assay: In vitro toxicity test on normal human melanocytes, 48 h; format: cell-based; settings: concentration 10 times higher than its IC50, FIG. 2
# CHOP in KATO III cells = assay: CHOP induction (ER stress marker), western blot, Kato III; format: cell-based, human; set-up: key: −: No induction of CHOP; +: Induction of CHOP; ++: Significant induction of CHOP; +++: Strong induction of CHOP; settings: Kato III (1% SVF), 24 or 48 h
# A375 melanoma cells [4] = assay: IC50 determination in A375 cells, blue trypan exclusion; format: cell-based, human; settings: Homo sapiens, A-375; A375, serum free, 24 h
# CHOP in Kyse 70 cells = assay: CHOP induction (ER stress marker), western blot, Kyse70; format: cell-based, human; set-up: key: −: No induction of CHOP; +: Induction of CHOP; ++: Significant induction of CHOP; +++: Strong induction of CHOP; settings: Kyse70 (serum free), 24 h
# [5] = tested on: CHOP in A375 melanoma cells; assay: CHOP induction (ER stress marker), western blot, A375; format: cell-based, human; set-up: key: −: No induction of CHOP; +: Induction of CHOP; ++: Significant induction of CHOP; +++: Strong induction of CHOP; settings: A375 (serum free), 24 h
# CHOP in SH10TC cells = assay: CHOP induction (ER stress marker), western blot, SH10TC; format: cell-based, human; set-up: key: −: No induction of CHOP; +: Induction of CHOP; ++: Significant induction of CHOP; +++: Strong induction of CHOP; settings: SH10TC (serum free), 24 or 48 h
# [6] = Pharmacokinetics in mice (half-life, AUC IV, AUC PO); format: in vivo; settings: for half-life: mouse, in vivo, 1 mg/kg, head prints both IV and PO administration 1 mpk, read-out: T½ IV (min) (PO administration 1 mpk)
# Aqueous solubility = format: physicochemical; settings: aqueous medium (not further specified), read-out: Solublity
# [7] = tested on: NCI-60 Human Tumor Cell Lines; assay: DTP-NCI-60 Human Tumor Cell Lines screen, one-dose; format: cell-based; settings: growth relative to no-drug control and time zero, 100 = no inhibition, 0 = no net growth, negative = lethality
# [8] = Chemical stability in PBS/DMSO and aqueous HCl; format: physicochemical; settings: 24 h
SMILES,viability at 5 µM (A375 melanoma cells [1]; 5 μM) [%],viability at 10 µM (A375 melanoma cells [1]; 10 μM) [%],toxicity in normal human fibroblasts [2],toxicity in normal human melanocytes [3],"Induction of CHOP in comparison to control condition, Kato III (CHOP in KATO III cells)",IC50 (A375 melanoma cells [4]) [µM],"Induction of CHOP in comparison to control condition, Kyse70 (CHOP in Kyse 70 cells)","Induction of CHOP in comparison to control condition, A375 [5]","Induction of CHOP in comparison to control condition, SH10TC (CHOP in SH10TC cells)",AUC IV (min · ng/mL/mpk) [6] [min · ng/mL/mpk],AUC PO (min · ng/mL/mpk) [6] [min · ng/mL/mpk],half-life [6] [min],solubility (Aqueous solubility) [µM],Mean growth inhibition value (data from DTP-NCI60) [7],"chemical stability ([8]; PBS (pH 7.4), 20% DMSO)","chemical stability ([8]; PBS (pH 7.4), 20% DMSO, 80° C.)",chemical stability ([8]; aqueous HCl (0.1M))
"CC(=O)NCCCCCC(=O)Nc1nc(-c2cccc(NS(=O)(=O)c3cccc4c(N(C)C)cccc34)c2)cs1 [PB628, 6-acetamido-N-(4-(3-((5-(dimethylamino)naphthalene)-1-sulfonamido)phenyl)thiazol-2-yl)hexanamide]",25.2 ± 6.1,12.5 ± 6.7,no toxicity,no toxicity,,,,,,,,,,,,,
"CCCCCc1ccc(S(=O)(=O)Nc2cccc(-c3csc(NC(=O)CN4CCN(C)CC4)n3)c2)cc1 [PB688, 2-(4-methylpiperazin-1-yl)-N-(4-(3-((4-pentylphenyl)sulfonamido)phenyl)thiazol-2 yl)acetamide]",,,,,+,1,+++,+++,++,112348,3000,76,17 ± 7,,,,
"CCCCCc1ccc(S(=O)(=O)Nc2cccc(-c3csc(NC(=O)CN4CCN(CCO)CC4)n3)c2)cc1 [PB689, 2-(4-(2-hydroxyethyl)piperazin-1-yl)-N-(4-(3-((4-pentylphenyl)sulfonamido)phenyl)thiazol-2-yl)acetamide]",,,,,++,1.3,+,+,+++,,,110,,,,,
"CCCCCc1ccc(S(=O)(=O)Nc2cc(-c3csc(NC(=O)CN4CCN(C)CC4)n3)ccc2OC)cc1 [PB691, N-(4-(4-methoxy-3-((4-pentylphenyl)sulfonamido)phenyl)thiazol-2-yl)-2-(4-methylpiperazin-1-yl)acetamide]",,,,,+,1.7,++,+,−,,6266,77,,,,,
"CCCCCc1ccc(S(=O)(=O)Nc2cc(-c3csc(NC(=O)CN4CCN(CCO)CC4)n3)ccc2OC)cc1 [PB692, 2-(4-(2-hydroxyethyl)piperazin-1-yl)-N-(4-(4-methoxy-3-((4-pentylphenyl)sulfonamido)phenyl)thiazol-2-yl)acetamide]",,,,,+,1.6,+,+,+,488474,3978,,7 ± 5,23.99,,,
"CCCCCc1ccc(S(=O)(=O)Nc2cccc(-c3csc(NC(=O)CCCCCN4CCN(C)CC4)n3)c2)cc1 [PB694, 6-(4-methylpiperazin-1-yl)-N-(4-(3-((4-pentylphenyl)sulfonamido)phenyl)thiazol-2-yl)hexanamide]",,,,,+,0.75,++,+,++,,,,,37.26,,,
"CCCCCc1ccc(S(=O)(=O)Nc2cccc(-c3csc(NC(=O)CCCCCN4CCN(CCO)CC4)n3)c2)cc1 [PB695, 6-(4-(2-hydroxyethyl)piperazin-1-yl)-N-(4-(3-((4-pentylphenyl)sulfonamido)phenyl)thiazol-2-yl)hexanamide]",,,,,−,0.6,+,+,++,,,,,,,,
"CCCCCc1ccc(S(=O)(=O)Nc2cc(-c3csc(NC(=O)CN4CCN(C)CC4)n3)ccc2N2CCN(C)CC2)cc1 [PB696, 2-(4-methylpiperazin-1-yl)-N-(4-(4-(4-methylpiperazin-1-yl)-3-((4-pentylphenyl)sulfonamido)phenyl)thiazol-2-yl)acetamide]",,,,,+,0.9,−,+,++,,,312,49 ± 16,,,,
"CCCCCc1ccc(S(=O)(=O)Nc2cccc(-c3csc(NCCN4CCN(C)CC4)n3)c2)cc1 [PB704, N-(3-(2-((2-(4-methylpiperazin-1-yl)ethyl)amino)thiazol-4-yl)phenyl)-4-pentylbenzenesulfonamide]",,,,,+,1.2,+,++,−,197707,4435,,1.4 ± 0.3,55.54,full stability,full stability,full stability
"CCCCCc1ccc(S(=O)(=O)N(C(C)=O)c2cccc(-c3csc(N(CCN4CCN(C)CC4)C(C)=O)n3)c2)cc1 [PB705, N-(2-(4-methylpiperazin-1-yl)ethyl)-N-(4-(3-(N-((4-pentylphenyl)sulfonyl)acetamido)phenyl)thiazol-2-yl)acetamide]",,,,,++,1.3,,++,,,,,,5.64,,,
